Results reported in the NIST ThermoML archive (doi:10.1007/s10765-019-2537-x).

Details: Liquid, transient hot wire

Cc1ccccc1 [toluene]
Details	thermal conductivity [W/m/K]
317.39 K, 5130 kPa	0.1266
317.42 K, 1050 kPa	0.1251
317.42 K, 10550 kPa	0.1277
317.46 K, 15330 kPa	0.1292
317.52 K, 20330 kPa	0.133
336.3 K, 20300 kPa	0.1267
336.32 K, 10150 kPa	0.1229
336.34 K, 15140 kPa	0.1245
336.39 K, 5020 kPa	0.1205
336.42 K, 1030 kPa	0.1194
356.27 K, 15170 kPa	0.1205
356.27 K, 20040 kPa	0.1218
356.36 K, 10440 kPa	0.1184
356.41 K, 1160 kPa	0.1131
356.43 K, 5170 kPa	0.1166
376.88 K, 20030 kPa	0.1185
376.95 K, 5200 kPa	0.1108
376.95 K, 10160 kPa	0.1124
376.95 K, 15270 kPa	0.1147
377.07 K, 1080 kPa	0.1096
395.96 K, 15140 kPa	0.1121
396.23 K, 10180 kPa	0.1091
396.26 K, 20010 kPa	0.1141
396.28 K, 5150 kPa	0.1072
396.32 K, 1030 kPa	0.1059
416.29 K, 20250 kPa	0.1104
416.33 K, 15150 kPa	0.1066
416.68 K, 5290 kPa	0.1033
416.72 K, 10280 kPa	0.1054
416.75 K, 1040 kPa	0.1013
436.23 K, 20100 kPa	0.1051
436.34 K, 15130 kPa	0.1036
436.37 K, 1020 kPa	0.0972
436.48 K, 10230 kPa	0.1026
436.52 K, 5170 kPa	0.0992
456.02 K, 20030 kPa	0.1029
456.04 K, 5400 kPa	0.0956
456.22 K, 15290 kPa	0.1003
456.24 K, 10330 kPa	0.099
456.26 K, 1140 kPa	0.0928
476.35 K, 10170 kPa	0.0941
476.38 K, 20260 kPa	0.0994
476.61 K, 1110 kPa	0.0901
476.73 K, 5010 kPa	0.0914
476.75 K, 15330 kPa	0.0965
496.03 K, 20300 kPa	0.0962
496.15 K, 2850 kPa	0.0875
496.27 K, 15290 kPa	0.0945
496.31 K, 10420 kPa	0.0928
496.49 K, 5210 kPa	0.087
516.06 K, 20190 kPa	0.094
516.2 K, 15360 kPa	0.0916
516.21 K, 10220 kPa	0.0906
516.4 K, 5090 kPa	0.0862
536.3 K, 10150 kPa	0.0873
536.39 K, 15400 kPa	0.0897
536.56 K, 20330 kPa	0.0921
556.53 K, 15430 kPa	0.0908
556.59 K, 20100 kPa	0.0927
556.68 K, 10050 kPa	0.0869
576.72 K, 20150 kPa	0.0885
